Earlier results on 2 molecules are cited in paper PMC10965793, “Synthesis and biological evaluation of pyridylpiperazine hybrid derivatives as urease inhibitors” (Frontiers in Chemistry, 2024).

Where two headings read alike, the source gives them in different places.

The subject of the series is urease. The note with it: 2022, cited from earlier work.

On to `NC(=S)N/N=C/c1ccc(Cl)cn1` [Pyridine carbothioamide], for which the IC50 (in Figure 3, ref Naseer et al.) is 1070 nM.
In the case of `COc1ccccc1N1CCN(c2ccc(/C=N/NC(N)=O)cc2)CC1` [Piperazine based semicarbazone], the IC50 (in Figure 3, ref Moghadam et al.) was 3950 nM.
